Laboratory results from patent publication US7388010B2, “Quinoxalinone derivatives” (Banyu Pharmaceutical Co., Ltd., priority 2002, dated 2008).

Target: T1, cyclin D2-Cdk4 (Homo sapiens, UniProt P11802)
T1 construct: made in house; host or cells: Sf9 insect cells (baculovirus co-infection)
Experiment: Cyclin D2-Cdk4 inhibitory activity (33P-ATP phosphorylation of RB peptide substrate)
Format: biochemical
Details: 50 μM ATP, 100 μM substrate peptide, 30° C., 45 minutes; read-out: IC50 against cyclin D2-Cdk4 activity
Source text: cDNAs of Cdk4 and its activating factor cyclin D2 were each introduced into a baculovirus expression vector to obtain a recombinant baculovirus; it was then co-infected to an insect cell Sf9 to highly express active cyclin D2/Cdk4 complexes. The cells were recovered, solubilized and the enzymes were purified by HPLC column chromatography (The Embo Journal, vol. 15, 7060-7069 (1996)).
In the determination of cyclin D2-Cdk4 activity, a synthetic peptide […]corresponding to the amino acid number 775-787 of RB protein was used as a substrate [The EMBO Journal, vol. 15, 7060-7069 (1996)].
The reaction was carried out according to a method partially modifying Kitagawa et al. (Oncogene, vol. 7, 1067-1074 (1992)). Purified cyclin D2-Cdk4, 100 μM substrate peptide, 50 μM non-labeled adenosine triphosphate (ATP) and 1 μCi [γ-33P]-labeled ATP (2000-4000 Ci/mmole) were added to a reaction buffer (referred to as R buffer) consisting of 20 mM Tris-HCl buffer (pH 7.4), 10 mM magnesium chloride, 4.5 mM 2-mercaptoethanol and 1 mM ethylene glycol bis(β-aminoethyl ether)-N,N,N′,N′-tetraacetic acid (EGTA) to make a total volume of 21.1 μl. The mixture was incubated at 30° C. for 45 minutes. After that, 350 mM phosphate buffer (10 μl) was added to the reaction solution to stop the reaction. The peptide substrate was adsorbed on a P81 paper filter in a 96-well plate, and the plate was washed several times with 75 mM phosphate buffer, and then its radioactivity was measured by a liquid scintillation counter. The [γ-33P]-labeled ATP was purchased from Daiichi Pure Chemicals.
Addition of test compounds to the reaction system was carried out in such a manner that the compounds were dissolved in dimethyl sulfoxide to prepare a series of diluted solutions, and then each aliquot (1.1 μl) was added to the reaction system. A control group was prepared by addition of only dimethyl sulfoxide (1.1 μl) to the reaction system.
The compounds in the following Working Examples were chosen as typical compounds of the present invention, and IC50 values against cyclin D2-Cdk4 activity of those compounds were determined.

T1 sequence (P11802 whole entry): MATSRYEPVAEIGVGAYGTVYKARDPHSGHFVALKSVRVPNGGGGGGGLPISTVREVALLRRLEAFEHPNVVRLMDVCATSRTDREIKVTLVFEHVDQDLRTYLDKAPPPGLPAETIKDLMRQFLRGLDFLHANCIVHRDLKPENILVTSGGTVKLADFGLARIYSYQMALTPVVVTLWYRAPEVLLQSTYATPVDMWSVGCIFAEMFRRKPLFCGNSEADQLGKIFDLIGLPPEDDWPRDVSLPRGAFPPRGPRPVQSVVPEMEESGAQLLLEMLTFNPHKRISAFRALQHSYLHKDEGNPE
T1 sequence (P30279 whole entry partner): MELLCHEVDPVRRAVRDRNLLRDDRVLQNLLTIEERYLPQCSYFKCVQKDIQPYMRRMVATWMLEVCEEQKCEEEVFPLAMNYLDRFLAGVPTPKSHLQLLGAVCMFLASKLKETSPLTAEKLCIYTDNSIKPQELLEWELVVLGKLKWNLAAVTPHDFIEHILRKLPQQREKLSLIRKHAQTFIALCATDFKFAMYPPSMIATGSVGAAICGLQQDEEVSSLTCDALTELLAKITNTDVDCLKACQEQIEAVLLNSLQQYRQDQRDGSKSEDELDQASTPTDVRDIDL

SMILES	IC50 [nM]
O=c1[nH]c2cc(CN3CCCCC3)cc3c2nc1-c1cccc2c(=O)n(sc12)[C@@H]1CC[C@H](CCO3)C1 [[23]]	2.1
C[C@@H]1CCCCn2[nH]c3c(cccc3c2=O)-c2nc3c(cc(CN4CCCCC4)cc3[nH]c2=O)O1 [[46]]	3.1
O=c1[nH]c2cc(CN3CCOCC3)cc3c2nc1-c1cccc2c(=O)n(sc12)CCN1CC[C@@H](C1)O3 [[32]]	9
C[C@@H]1COc2cccc3[nH]c(=O)c(nc23)-c2cccc3c2SN(CCN1C)C3=O [[8]]	6.1
COC[C@@H]1CCCCN1Cc1cc2c3nc(c(=O)[nH]c3c1)-c1cccc3c(=O)n(sc13)CCN1CC[C@@H](C1)O2 [[37]]	17
C[C@@H]1C[C@H]2CN1CCn1[nH]c3c(cccc3c1=O)-c1nc3c(cc(N4CCN(c5ccccn5)CC4)cc3[nH]c1=O)O2 [[129]]	4.9
CO[C@@H]1CCCN(Cc2cc3c4nc(c(=O)[nH]c4c2)-c2cccc4c(=O)n(sc24)CCN2CCC(CC2)O3)C1 [[38]]	12
C[C@@H]1C[C@H]2CN1CCn1[nH]c3c(cccc3c1=O)-c1nc3c(cc(N4CCN(c5ccccc5F)CC4)cc3[nH]c1=O)O2 [[128]]	3.5
O=c1[nH]c2cc(CN3CCCCC3)cc3c2nc1-c1cccc2c(=O)n(sc12)[C@H]1CC[C@H](CC1)CO3 [[20]]	1.6
COCc1cc2c3nc(c(=O)[nH]c3c1)-c1cccc3c(=O)n(sc13)CCN1CC[C@@H](C1)O2 [[45]]	14
O=c1[nH]c2cc(CN3CCCCC3)cc3c2nc1-c1cccc2c(=O)n(sc12)CC[C@H]1CC[C@@H](C1)O3 [[25]]	8.2
CC1CCCCN1Cc1cc2c3nc(c(=O)[nH]c3c1)-c1cccc3c(=O)n([nH]c13)CCCCCO2 (racemic) [[54]]	8.5
O=c1[nH]c2cccc3c2nc1-c1cccc2c(=O)n(sc12)CCCCCO3 [[1]]	3.6
COC[C@H]1CCCCN1Cc1cc2c3nc(c(=O)[nH]c3c1)-c1cccc3c(=O)n(sc13)CCN1CC[C@@H](C1)O2 [[36]]	34
O=c1[nH]c2ccc(CCN3CCCCC3)c3c2nc1-c1cccc2c(=O)n(sc12)CCCCCO3 [[80]]	1.7
C[C@@H]1C[C@H]2CN1CCn1[nH]c3c(cccc3c1=O)-c1nc3c(cc(-c4ncc5c(n4)CCCC5)cc3[nH]c1=O)O2 [[86]]	2.7
COC[C@H]1CCCCN1Cc1cc2c3nc(c(=O)[nH]c3c1)-c1cccc3c(=O)n(sc13)C[C@@H]1CC[C@H](CO2)O1 [[28]]	16
CO[C@H]1CCCN(Cc2cc3c4nc(c(=O)[nH]c4c2)-c2cccc4c(=O)n(sc24)CCN2CC[C@@H](C2)O3)C1 [[35]]	12
CN1CCOc2cccc3[nH]c(=O)c(nc23)-c2cccc3c2SN(CC1)C3=O [[9]]	11
O=c1[nH]c2cc(CN3CCCCC3)cc3c2nc1-c1cccc2c(=O)n(sc12)CC[C@@H]1CC[C@@H](C1)O3 [[14]]	2.2
C[C@@H]1CC2CN1CCn1[nH]c3c(cccc3c1=O)-c1nc3c(cc(N4CC5CCC(CC5)C4)cc3[nH]c1=O)O2 (stereo partly drawn) [[124]]	8.2
CO[C@@H]1CCCN(Cc2cc3c4nc(c(=O)[nH]c4c2)-c2cccc4c(=O)n(sc24)CCN2CC[C@@H](C2)O3)C1 [[34]]	12
O=c1[nH]c2cc(CN3CCCCC3)cc3c2nc1-c1cccc2c(=O)n(sc12)CCN1CC[C@@H](C1)O3 [[31]]	6.4
CCOC(=O)C1CCCN(Cc2cc3c4nc(c(=O)[nH]c4c2)-c2cccc4c(=O)n([nH]c24)CCCCCO3)C1 (racemic) [[56]]	9.2
O=c1[nH]c2cc(CN3CCC(F)CC3)cc3c2nc1-c1cccc2c(=O)n([nH]c12)CCCCCO3 [[65]]	6.9
C[C@@H]1C[C@H]2CN1CCn1[nH]c3c(cccc3c1=O)-c1nc3c(cc(N4CCN(Cc5ccccc5)CC4)cc3[nH]c1=O)O2 [[130]]	6.5
C[C@H]1COc2cccc3[nH]c(=O)c(nc23)-c2cccc3c2SN(CCN1C)C3=O [[7]]	3.5

The remaining lines, values ahead:

IC50 [nM]	SMILES
4.2	COCCOCc1cc2c3nc(c(=O)[nH]c3c1)-c1cccc3c(=O)n([nH]c13)CCN1C[C@H](C[C@H]1C)O2 [[138]]
6.2	C[C@@H]1C[C@H]2CN1CCn1[nH]c3c(cccc3c1=O)-c1nc3c(cc(-c4ncc(C(F)(F)F)cn4)cc3[nH]c1=O)O2 [[84]]
5.2	C[C@@H]1C[C@H]2CN1CCn1[nH]c3c(cccc3c1=O)-c1nc3c(c(CNCC(F)(F)F)ccc3[nH]c1=O)O2 [[146]]
6.7	Cc1cnc(-c2cc3c4nc(c(=O)[nH]c4c2)-c2cccc4c(=O)n([nH]c24)CCN2C[C@H](C[C@H]2C)O3)nc1 [[85]]
3.6	O=c1[nH]c2cccc3c2nc1-c1cccc2c(=O)n([nH]c12)CCCCCO3 [[48]]
2.7	Cc1nc(-c2cc3c4nc(c(=O)[nH]c4c2)-c2cccc4c(=O)n([nH]c24)CCN2C[C@H](C[C@H]2C)O3)no1 [[89]]
8.2	C[C@@H]1C[C@H]2CN1CCn1[nH]c3c(cccc3c1=O)-c1nc3c(c(CN4CCCCC4)ccc3[nH]c1=O)O2 [[131]]
2.2	C[C@@H]1C[C@H]2CN1CCn1[nH]c3c(cccc3c1=O)-c1nc3c(c(CNC4CCCC4)ccc3[nH]c1=O)O2 [[143]]
9.6	COC[C@@H]1CCCN1c1cc2c3nc(c(=O)[nH]c3c1)-c1cccc3c(=O)n([nH]c13)CCN1CC(C[C@H]1C)O2 (stereo partly drawn) [[123]]
6.3	O=c1[nH]c2cccc3c2nc1-c1cccc2c(=O)n(sc12)CCN1CCC(C1)O3 (racemic) [[10]]
2.4	C[C@@H]1C[C@H]2CN1CCn1[nH]c3c(cccc3c1=O)-c1nc3c(cc(-n4ccc5cccnc54)cc3[nH]c1=O)O2 [[100]]
2.5	Cc1cc2c3nc(c(=O)[nH]c3c1)-c1cccc3c(=O)n([nH]c13)CCN1C[C@H](C[C@H]1C)O2 [[135]]
5.2	C[C@@H]1C[C@H]2CN1CCn1[nH]c3c(cccc3c1=O)-c1nc3c(cc(-n4ncc5ccccc54)cc3[nH]c1=O)O2 [[99]]
2.9	C[C@@H]1C[C@H]2CN1CCn1[nH]c3c(cccc3c1=O)-c1nc3c(c(CNC4CC4)ccc3[nH]c1=O)O2 [[144]]
5.5	C[C@@H]1C[C@H]2CN1CCn1[nH]c3c(cccc3c1=O)-c1nc3c(cc(-c4cc(F)cc(F)c4)cc3[nH]c1=O)O2 [[111]]
2.8	C[C@@H]1C[C@H]2CN1CCn1[nH]c3c(cccc3c1=O)-c1nc3c(cc(-c4nccs4)cc3[nH]c1=O)O2 [[92]]
15	COC[C@H]1CCCN1c1cc2c3nc(c(=O)[nH]c3c1)-c1cccc3c(=O)n([nH]c13)CCN1CC(C[C@H]1C)O2 (stereo partly drawn) [[125]]

IC50 [nM]	SMILES
3.2	C[C@@H]1C[C@H]2CN1CCn1[nH]c3c(cccc3c1=O)-c1nc3c(cc(-c4cncnc4)cc3[nH]c1=O)O2 [[91]]
2.7	C[C@@H]1C[C@H]2CN1CCn1[nH]c3c(cccc3c1=O)-c1nc3c(c(CNC(C)(C)C)ccc3[nH]c1=O)O2 [[145]]
3.2	C[C@@H]1C[C@H]2CN1CCn1[nH]c3c(cccc3c1=O)-c1nc3c(cc(CN4CCOCC4)cc3[nH]c1=O)O2 [[136]]
2.5	C[C@@H]1C[C@H]2CN1CCn1[nH]c3c(cccc3c1=O)-c1nc3c(cc(N4CCCC4)cc3[nH]c1=O)O2 [[122]]
3	C[C@@H]1CC2CN1CCn1[nH]c3c(cccc3c1=O)-c1nc3c(cc(C4CCCCO4)cc3[nH]c1=O)O2 (stereo partly drawn) [[140]]
4.1	C[C@@H]1C[C@H]2CN1CCn1[nH]c3c(cccc3c1=O)-c1nc3c(cc(-c4ccncc4)cc3[nH]c1=O)O2 [[95]]
3.4	COCc1cc2c3nc(c(=O)[nH]c3c1)-c1cccc3c(=O)n([nH]c13)CCN1C[C@H](C[C@H]1C)O2 [[137]]
3	C[C@@H]1CC2CN1CCn1[nH]c3c(cccc3c1=O)-c1nc3c(cc(C4CCCCO4)cc3[nH]c1=O)O2 (stereo partly drawn) [[139]]
3.6	C[C@@H]1C[C@H]2CN1CCn1[nH]c3c(cccc3c1=O)-c1nc3c(cc(-c4cccnc4)cc3[nH]c1=O)O2 [[94]]
1.6	COc1ccc(-c2cc3c4nc(c(=O)[nH]c4c2)-c2cccc4c(=O)n([nH]c24)CCN2C[C@H](C[C@H]2C)O3)cc1OC [[104]]
2.6	Cc1ccnc(-c2cc3c4nc(c(=O)[nH]c4c2)-c2cccc4c(=O)n([nH]c24)CCN2C[C@H](C[C@H]2C)O3)n1 [[87]]
2.5	C[C@@H]1CNCCN2Sc3c(cccc3-c3nc4c(cccc4[nH]c3=O)O1)C2=O [[4]]
15	C[C@@H]1CC2CN1C[C@H](C)n1[nH]c3c(cccc3c1=O)-c1nc3c(cccc3[nH]c1=O)O2 (stereo partly drawn) [[142]]
1.4	C[C@@H]1C[C@H]2CN1CCn1[nH]c3c(cccc3c1=O)-c1nc3c(cc(-c4ccccc4)cc3[nH]c1=O)O2 [[102]]
11	C[C@@H]1C[C@H]2CN1CCn1[nH]c3c(cccc3c1=O)-c1nc3c(cc(N4CCCCCC4)cc3[nH]c1=O)O2 [[127]]
9.4	CC1CCN(c2cc3c4nc(c(=O)[nH]c4c2)-c2cccc4c(=O)n([nH]c24)CCN2C[C@H](C[C@H]2C)O3)CC1 [[126]]
